Source: US11827543B2, “Method for continuous supply of superoxide-containing peracetate oxidant solution” (Clean Chemistry, Inc., priority 2014, dated 2023)

Key:
[1] = Gel breaking of guar gum mixture; conditions: for Viscosity at 2 Hour Contact Time: 10 g/L guar gum, 35-40 °C
Method: Example 15: Gel Breaking ability for well squeeze to remove “polymer damage”. The use of the sodium peracetate oxidant formulation was tested for the depolymerization and break down of guar gum. […] The guar mixture was made by rapidly mixing 10 g/L food grade guar gum powder into a 10 g/L sodium chloride solution in distilled water. The blended mixture was heated to about 35-40° C. in a heated water bath for at least one hour to fully hydrate the guar. The mixture appeared translucent with fine, milky white suspended solids. […] The first was a control sample to which no oxidant was added. The remaining samples had increasing amounts of sodium peracetate oxidant added to them. The oxidant was prepared as described in Example 4 and the pH was adjusted to about 9.1 with sodium bisulfate before use. The oxidant was rapidly mixed with the guar mixture resulting in a pale yellow color. The mixtures were placed in a water bath at about 35-40° C. and the yellow color gradually faded away over the next hour. After two hours the samples were cooled to room temperature.

[2] = test system: acid producing bacteria (APB); assay: Acid producing bacteria serial dilution culture (Intertek APB media); assay type: cell-based; conditions: produced water, Example 17, 30 min contact, no grow back
Method: The water's color rapidly turned orange and the ORP increased to about 700 mV vs SHE. During the first 5 to 10 minutes of slow mixing there was some floc formation. After 20 minutes stirring was ceased and the flocculated solids were allowed to settle, however the water remained hazy orange. […] The ATP concentration was reduced by about 93% from the untreated water concentration and the bioassay results indicated at least 4 log reductions in acid producing and sulfate reducing bacteria relative to the untreated water's ATP concentration (approximately 1.8×10^6 microbial equivalents per mL).
Water parameters were measured by a variety of methods. The pH was measured using a high sodium electrode (Oakton model 35805-05) with three point calibration and automatic temperature correction. The ORP (oxidative-reductive potential) of solutions was measured using an Oakton model 35805-15 ORP probe calibrated to the standard hydrogen electrode (SHE) using Thermo/Orion ORP standard 967901. Sodium ion concentration was measured using a Cole-Parmer ion selective electrode, EW-27504-30, with two point calibration of a sodium standard solution of NaCl. Chloride ion concentration was measured using a Cole-Parmer ion selective electrode, SC-27504-08, with two point calibration of a chloride standard solution of NaCl. All measurements using HACH methods were measured using a HACH DR900 colorimeter. Calcium, magnesium and total hardness concentrations were measured using HACH method 8030. Sulfate concentration was measured using HACH method 10248. Aluminum concentration was measured using HACH method 8012. Iron concentration was measured using HACH method 10249 modified with a longer reaction time to minimize interferences from organic impurities. Total suspended solids (TSS) concentration was measured using HACH method 8006 modified for smaller volumes. Turbidity was measured using HACH method 8237. […] Acid producing bacteria (ABP) and sulfate reducing bacteria (SRB) cell culture concentrations were measured with standard 1 mL serial dilutions using Intertek APB and SRB culture media, 1% salinity.

## CC(=O)O[O-].[Na+] [sodium peracetate oxidant, sodium peracetate]
[1]; oxidant conc. 65 mg/L
  Viscosity at 2 Hour Contact Time: same as initial
[1]; oxidant conc. 220 mg/L
  Viscosity at 2 Hour Contact Time: slightly reduced
[1]; oxidant conc. 440 mg/L
  Viscosity at 2 Hour Contact Time: very reduced
[1]; about 65 mg/L oxidant, control lost viscosity overnight, biofilm after a week
  preservation of guar mixture on standing at room temperature: retained its original viscosity and milky color for at least a week
[2]; 29 mg/L plus 5 mg/L floc aid
  APB (cells/mL and log reduction): 5 log (no grow
[2]; 29 mg/L, untreated >>10,000 cells/mL
  APB (cells/mL and log reduction): 5 log (no grow
[2]; 52 mg/L
  APB (cells/mL and log reduction): 5 log (no grow
